Results on 15 compounds are retold here after PMC9867151, “Anti-HIV Potential of Beesioside I Derivatives as Maturation Inhibitors: Synthesis, 3D-QSAR, Molecular Docking and Molecular Dynamics Simulations” (International Journal of Molecular Sciences, 2023).

Series [1] relates to HIV-1NL4-3 Nanoluc-sec virus. The series can be described thus: Anti-HIV assay: multicycle viral replication in MT4 cells, Nano-Glo luciferase readout. Format: cell-based. Here is the method: (§1) All of the synthetic derivatives were evaluated for anti-HIV activity by determining the inhibitory effects on virus replication in MT4 lymphocytes infected by HIV-1NL4-3 Nanoluc-sec virus. Cytotoxic activity tests were also carried out on MT4 cells.
In vitro activity was determined by a previously described HIV-1 infection assay. Briefly, a 96-well microtiter plate was used to set up the screening assay using MT4 cells infected by HIV-1NL4-3 Nanoluc-sec virus in the presence of various concentrations of derivatives. The viral replication thus can be monitored by measuring the luciferase activity using the Promega Nano-Glo Luciferase Assay System.

Series [2] in a line: CellTiter-Glo Luminescent Cytotoxicity Assay. Format: cell-based. Conditions: human, MT-4 cells (MT4 lymphocytes). Here is the method:
as §1
(§2) The cytotoxicity of the synthesized derivatives was determined using the CellTiter-Glo® Luminescent Cytotoxicity Assay (Promega, Madison, WI, USA). MT-4 cells were cultured in the presence of various concentrations of the compounds for 3 days. The percentage of viable cells was measured by following the protocol provided by the manufacturer. The CC50 was derived using the Quest Graph™ IC50 Calculator (https://www.aatbio.com/tools/ic50-calculator, accessed on 7 October 2021).
(In general: In ATP-based viability assays light output follows the ATP content of the culture.)

The test system of series [3] is MT4 cells. The series can be described thus: CellTiter-Glo Luminescent Cytotoxicity Assay. Format: cell-based. Conditions: MT-4 cells, 3 days. As for the experimental part: as §1, §2
The test system of series [4] is HIV-1NL4-3 Nanoluc-sec virus. Conditions: cited from earlier work.
The mark [5] stands for this setting: Human immunodeficiency virus 1, MT4, read-out: PEC50, actual value converted from EC50, 3D-QSAR dataset.
[6] abbreviates: Human immunodeficiency virus 1, MT4, 3D-QSAR dataset, actual values, entries matching the derivatives tested in this paper (Table 1).
Setting [7] is: 3D-QSAR dataset, actual values, ref activity data reported from our laboratory.

Counter-ions that a name gives are not always drawn. Like-named read-outs stand apart in the source and are kept apart here.

A word on the melting point: it is the temperature, or range, at which the solid turns liquid. In the case of `CC(=O)O[C@H]1[C@@H](OC(C)=O)[C@@]2(C)C3CCC4C(C)(C)[C@@H](OC(=O)CC(C)(C)C(=O)OCc5ccccc5)CC[C@@]45C[C@@]35CC[C@@]23CO[C@@]2(C(C)(C)O)CC[C@](C)(O2)[C@@H]13` (stereo partly drawn) (as salt: succinate) [3b, (20S,24S)-15β,16β-Diacetoxy-18,24;20,24-diepoxy-9,19-cyclolanostane-3β,25-diol-3-O-4′-(benzyloxy) carbonyl-3′,3′-dimethylsuccinate], the melting point lay within 188 to 190 °C.

For orientation: EC50 means the midpoint of the concentration-response curve. For the compound `CC(C)(CC(=O)O[C@H]1CC[C@]23C[C@]24CC[C@]25CO[C@@]6(C(C)(C)O)CC[C@](C)(O6)[C@H]2[C@@H](O)[C@@H](O)[C@@]5(C)C4CCC3C1(C)C)C(=O)O` (stereo partly drawn) [3 ^a], the EC50 in series [1] (setting [5]) is 0.12 µM.

By CC50 is commonly meant the concentration at which the toxic effect on the cells reaches its halfway point. On to `CC(=O)O[C@H]1[C@@H](OC(C)=O)[C@@]2(C)C3CCC4C(C)(C)[C@@H](OC(=O)CC(C)(C)C(=O)OCc5ccccc5)CC[C@@]45C[C@@]35CC[C@@]23CO[C@@]2(C(C)(C)O)CC[C@](C)(O2)[C@@H]13` (stereo partly drawn) [3b, (20S,24S)-15β,16β-Diacetoxy-18,24;20,24-diepoxy-9,19-cyclolanostane-3β,25-diol-3-O-4′-(benzyloxy) carbonyl-3′,3′-dimethylsuccinate], for which the EC50 in series [1] (Human immunodeficiency virus 1, NL43, MT4, read-out: EC50 (μM) NL4-3, MT4 cells infected by HIV-1NL4-3 Nanoluc-sec virus, mean +/− SD of 3 tests) came out at 0.28 µM. Also, the CC50 at 3 days in series [2] was > 20 µM.

For `Cc1cn([C@H]2C[C@H](N=[N+]=[N-])[C@@H](CO)O2)c(=O)[nH]c1=O` [AZT, reference compound], the EC50 in series [1] (MT4 cells infected by HIV-1NL4-3 Nanoluc-sec virus, mean +/− SD of 3 tests, read-out: EC50 (μM) NL4-3) worked out at 0.024 ± 0.0045 µM. For the same compound, in series [3], the CC50 was > 0.3 µM.

Take `CC(=O)OC1C2C3(C)CCC(C(C)(C)O)(OCC24CCC25CC26CCC(OC(=O)CC(C)(C)C(=O)O)C(C)(C)C6CCC5C4(C)C1OC(C)=O)O3` [DSC, (20S,24S)-15ꞵ,16ꞵ-diacetoxy-18,24; 20,24-diepoxy-9,19-cyclolanostane-3ꞵ,25-diol 3-O-3′,3′-dimethylsuccinate]: the EC50 in series [4] (anti-HIV, previous work) is 25 nM.

As to `CC(=O)OC1C2C3(C)CCC(C(C)(C)O)(OCC24CCC25CC26CCC(OC(=O)CC(C)(C)C(=O)OCc2ccccc2)C(C)(C)C6CCC5C4(C)C1OC(C)=O)O3` (stereo not drawn) [compound 4], the EC50 in series [1] (setting [6]) and in series [1] (setting [5]) was 0.285 µM each time.

`CC(=O)OC1C2C3(C)CCC(C(C)(C)O)(OCC24CCC25CC26CCC(OC(=O)CC(C)C(=O)O)C(C)(C)C6CCC5C4(C)C1OC(C)=O)O3` (stereo not drawn) [compound 6]: the EC50 in series [1] (setting [5]) was 1.11 µM; in series [4] (setting [7]), 1110 nM.

Turning to `CC(C)(CC(=O)OC1CCC23CC24CCC25COC6(C(C)(C)O)CCC(C)(O6)C2C(O)C(O)C5(C)C4CCC3C1(C)C)C(=O)OCc1ccccc1` (stereo not drawn) [compound 7], the EC50 in series [1] (setting [6]) and in series [1] (setting [5]) was 1.52 µM throughout.

For `CC(=O)OC1C2C3(C)CCC(C(C)(C)O)(OCC24CCC25CC26CCC(OC(=O)CC2(CC(=O)O)CCCC2)C(C)(C)C6CCC5C4(C)C1OC(C)=O)O3` (stereo not drawn) [compound 8], the EC50 in series [1] (setting [5]) is 1.59 µM; in series [4] (setting [7]) it was 1590 nM.

In the case of `CC(C)(CC(=O)OC1CCC23CC24CCC25COC6(C(C)(C)O)CCC(C)(O6)C2C(O)C(O)C5(C)C4CCC3C1(C)C)C(=O)O` (stereo not drawn) [compound 9], the EC50 in series [1] (setting [6]) and in series [1] (setting [5]) was 1.79 µM throughout.

Take `CC(=O)OC1C2C3(C)CCC(C(C)(C)O)(OCC24CCC25CC26CCC(OC2OCC(O)C(O)C2O)C(C)(C)C6CCC5C4(C)C1OC(C)=O)O3` (stereo not drawn) [compound 10]: the EC50 in series [1] (setting [5]) is 2.32 µM; in series [4] (setting [7]) it was 2320 nM.

Consider `CC(=O)OC1C2C3(C)CCC(C(C)(C)O)(OCC24CCC25CC26CCC(OC(C)=O)C(C)(C)C6CCC5C4(C)C1OC(C)=O)O3` (stereo not drawn) [compound 11], for which the EC50 in series [1] (setting [5]) was 2.44 µM; in series [4] (setting [7]) it was 2440 nM.

As to `CC(=O)OC1C(O)C2C3(C)CCC(C(C)(C)O)(OCC24CCC25CC26CCC(OC2OCC(O)C(O)C2O)C(C)(C)C6CCC5C14C)O3` (stereo not drawn) [compound 13], the EC50 is 4.85 µM in series [1] (setting [5]) and 4850 nM in series [4] (setting [7]).

On to `CC12CCC(C(C)(C)O)(OCC34CCC56CC57CCC(OC5OCC(O)C(O)C5O)C(C)(C)C7CCC6C3(C)C(O)C(O)C14)O2` (stereo not drawn) [compound 14], for which the EC50 is 7.62 µM in series [1] (setting [5]) and 7620 nM in series [4] (setting [7]).

As to beesioside I [compound 1], the PEC50 in series [1] (actual value converted from EC50, 3D-QSAR dataset) was 7.602. For the same compound, the EC50 in series [4] (setting [7]) was 25 nM.
